Results on 22 compounds are retold here after patent US12227482B2, “Compounds and compositions for the treatment of cancer” (The Regents of the University of California, priority 2016, dated 2025).

Molecules are shown by their SMILES. Some results are limits rather than exact numbers.

Assay type in all cases: cell-based
In assay [1] the test system is A549 cells. Kind of assay: Cell viability (CellTiter-Glo ATP content) in A549 cells. Particulars: Homo sapiens, A549, 72 h, 72 hours treatment, cell survival by CellTiter-Glo, 2% fetal bovine serum. A digest of the protocol: (§1)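 Cells plated at 5,000 per well in antibiotic-free RPMI with 2% FBS, treated next day in triplicate with increasing compound doses (final DMSO 0.5%) for 72 hours. Viability read as ATP content by CellTiter-Glo luminescence; percent survival relative to vehicle control set as 100%.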

Assay [2] has as its system LOX cells. Kind of assay: Cell viability (CellTiter-Glo ATP content) in LOX cells. The note with it: LOX, 72 h, 72 hours treatment, cell survival by CellTiter-Glo, 2% fetal bovine serum. A digest of the protocol: as §1
Background: In ATP-based viability assays light output follows the ATP content of the culture.

Assay [3] relates to MelJuSo cells. Kind of assay: Cell viability (CellTiter-Glo ATP content) in MelJuSo cells. Particulars: Homo sapiens, MEL-JUSO, 72 hours treatment, cell survival by CellTiter-Glo, 2% fetal bovine serum. A digest of the protocol:
as §1

Usually IC50 stands for the concentration that gives 50% inhibition. As to `CCCCC1C(c2c(F)cc(F)cc2F)=NN(c2ccc(F)cc2F)C1(C)C(=O)NCCCC(C)(C)CO` (stereo not drawn) [Compound 97, 4-butyl-1-(2,4-difluorophenyl)-N-(5-hydroxy-4,4-dimethylpentyl)-5-methyl-3-(2,4,6-trifluorophenyl)-4,5-dihydro-1H-pyrazole-5-carboxamide], the IC50 in assay [1] was > 2 µM; in assay [2], 1 to 2 µM; in assay [3], 0.5 to 1 µM.
For `CCCCC1C(c2c(F)cc(F)cc2F)=NN(c2ccc(F)cc2F)C1(C)C(=O)NCC(=O)OC` (stereo not drawn) [Compound 98, methyl 2-(4-butyl-1-(2,4-difluorophenyl)-5-methyl-3-(2,4,6-trifluorophenyl)-4,5-dihydro-1H-pyrazole-5-carboxamido)acetate] the same measures were > 2 µM, > 2 µM and 0.5 to 1 µM.
For `Cc1ccc(C2C(c3ccc(F)cc3)=NN(c3ccc(F)cc3F)C2(C)C(=O)NCCCC(C)(C)CO)s1` (stereo not drawn) [Compound 99, 1-(2,4-difluorophenyl)-3-(4-fluorophenyl)-N-(5-hydroxy-4,4-dimethylpentyl)-5-methyl-4-(5-methylthiophen-2-yl)-4,5-dihydro-1H-pyrazole-5-carboxamide] the same measures were > 2 µM, > 2 µM and 1 to 2 µM.
For `COCCNC(=O)C1(C)C(c2ccc(C)s2)C(c2ccc(F)cc2)=NN1c1ccc(F)cc1F` (stereo not drawn) [Compound 100, 1-(2,4-difluorophenyl)-3-(4-fluorophenyl)-N-(2-methoxyethyl)-5-methyl-4-(5-methylthiophen-2-yl)-4,5-dihydro-1H-pyrazole-5-carboxamide] the same measures were > 2 µM, 1 to 2 µM and 0.25 to 0.5 µM.
For `CC(C)(CO)CCCNC(=O)C1(C)C(c2ccc(Cl)s2)C(c2ccc(F)cc2)=NN1c1ccc(F)cc1F` (stereo not drawn) [Compound 101, 4-(5-chlorothiophen-2-yl)-1-(2,4-difluorophenyl)-3-(4-fluorophenyl)-N-(5-hydroxy-4,4-dimethylpentyl)-5-methyl-4,5-dihydro-1H-pyrazole-5-carboxamide], the 50% inhibitory concentration (IC50) was > 2 µM in assay [1], > 2 µM in assay [2] and 0.5 to 1 µM in assay [3].
As to `COCCNC(=O)C1(C)C(c2ccc(Cl)s2)C(c2ccc(F)cc2)=NN1c1ccc(F)cc1F` (stereo not drawn) [Compound 102, 4-(5-chlorothiophen-2-yl)-1-(2,4-difluorophenyl)-3-(4-fluorophenyl)-N-(2-methoxyethyl)-5-methyl-4,5-dihydro-1H-pyrazole-5-carboxamide], the half-maximal inhibitory concentration (IC50) lay in the range of 1 to 2 µM in assay [1], 0.5 to 1 µM in assay [2] and 0.25 to 0.5 µM in assay [3].
For `COC(=O)CNC(=O)C1(C)C(c2cccs2)C(c2ccc(F)cc2)=NN1c1ccc(F)cc1F` (stereo not drawn) [Compound 103, methyl 2-(1-(2,4-difluorophenyl)-3-(4-fluorophenyl)-5-methyl-4-(thiophen-2-yl)-4,5-dihydro-1H-pyrazole-5-carboxamido)acetate] the same measures were 0.5 to 1 µM, 0.5 to 1 µM and < 0.25 µM.
The like results for `CC(C)(O)CNC(=O)CNC(=O)C1(C)C(c2cccs2)C(c2ccc(F)cc2)=NN1c1ccc(F)cc1F` (stereo not drawn) [Compound 104, 1-(2,4-difluorophenyl)-3-(4-fluorophenyl)-N-(2-(2-hydroxy-2-methylpropylamino)-2-oxoethyl)-5-methyl-4-(thiophen-2-yl)-4,5-dihydro-1H-pyrazole-5-carboxamide] were, in that order, > 2 µM, 1 to 2 µM and 0.5 to 1 µM.
For `CC1(C(=O)NCC(=O)N2CCS(=O)(=O)CC2)C(c2cccs2)C(c2ccc(F)cc2)=NN1c1ccc(F)cc1F` (stereo not drawn) [Compound 105, 1-(2,4-difluorophenyl)-3-(4-fluorophenyl)-5-methyl-N-(1,1-dioxo-1-thiomorpholine-2-oxoethyl)-4-(thiophen-2-yl)-4,5-dihydro-1H-pyrazole-5-carboxamide] the same measures were > 2 µM, > 2 µM and > 2 µM.
On to `CC1(C(=O)NCC(=O)N2CCOCC2)C(c2cccs2)C(c2ccc(F)cc2)=NN1c1ccc(F)cc1F` (stereo not drawn) [Compound 106, 1-(2,4-difluorophenyl)-3-(4-fluorophenyl)-5-methyl-N-(2-morpholino-2-oxoethyl)-4-(thiophen-2-yl)-4,5-dihydro-1H-pyrazole-5-carboxamide], for which the IC50 in assay [1], in assay [2] and in assay [3] was > 2 µM throughout.
As for `CN(C)CCNC(=O)CNC(=O)C1(C)C(c2cccs2)C(c2ccc(F)cc2)=NN1c1ccc(F)cc1F` (stereo not drawn) [Compound 107, 1-(2,4-difluorophenyl)-N-(2-(2-(dimethylamino)ethylamino)-2-oxoethyl)-3-(4-fluorophenyl)-5-methyl-4-(thiophen-2-yl)-4,5-dihydro-1H-pyrazole-5-carboxamide], the values for the IC50 in assay [1], in assay [2] and in assay [3] were > 2 µM, > 2 µM and 1 to 2 µM, respectively.
Take `CC1(C(=O)NCC(=O)NC2COC2)C(c2cccs2)C(c2ccc(F)cc2)=NN1c1ccc(F)cc1F` (stereo not drawn) [Compound 108, 1-(2,4-difluorophenyl)-3-(4-fluorophenyl)-5-methyl-N-(2-(oxetan-3-ylamino)-2-oxoethyl)-4-(thiophen-2-yl)-4,5-dihydro-1H-pyrazole-5-carboxamide]: the half-maximal inhibitory concentration (IC50) in assay [1], in assay [2] and in assay [3] was > 2 µM throughout.
For the compound `CC1(C(=O)NCC(=O)NCCS(C)(=O)=O)C(c2cccs2)C(c2ccc(F)cc2)=NN1c1ccc(F)cc1F` (stereo not drawn) [Compound 109, 1-(2,4-difluorophenyl)-3-(4-fluorophenyl)-5-methyl-N-(2-(2-(methylsulfonyl)ethylamino)-2-oxoethyl)-4-(thiophen-2-yl)-4,5-dihydro-1H-pyrazole-5-carboxamide], the half-maximal inhibitory concentration (IC50) in assay [1], in assay [2] and in assay [3] was > 2 µM throughout.
As to `CC1(O)CC(NC(=O)CNC(=O)C2(C)C(c3cccs3)C(c3ccc(F)cc3)=NN2c2ccc(F)cc2F)C1` (stereo not drawn) [Compound 110, 1-(2,4-difluorophenyl)-3-(4-fluorophenyl)-N-(2-(3-hydroxy-3-methylcyclobutylamino)-2-oxoethyl)-5-methyl-4-(thiophen-2-yl)-4,5-dihydro-1H-pyrazole-5-carboxamide], the IC50 in assay [1], in assay [2] and in assay [3] was > 2 µM each time.
As to `CON(C)C(=O)CNC(=O)C1(C)C(c2cccs2)C(c2ccc(F)cc2)=NN1c1ccc(F)cc1F` (stereo not drawn) [Compound 111, 1-(2,4-difluorophenyl)-3-(4-fluorophenyl)-N-(2-(methoxy(methyl)amino)-2-oxoethyl)-5-methyl-4-(thiophen-2-yl)-4,5-dihydro-1H-pyrazole-5-carboxamide], the IC50 in assay [1], in assay [2] and in assay [3] was > 2 µM each time.
Take `CC1(C(=O)NCC(=O)NCCO)C(c2cccs2)C(c2ccc(F)cc2)=NN1c1ccc(F)cc1F` (stereo not drawn) [Compound 112, 1-(2,4-difluorophenyl)-3-(4-fluorophenyl)-N-(2-(2-hydroxyethylamino)-2-oxoethyl)-5-methyl-4-(thiophen-2-yl)-4,5-dihydro-1H-pyrazole-5-carboxamide]: the IC50 in assay [1], in assay [2] and in assay [3] was > 2 µM in each case.
As for `CCCCC1C(c2ccc(S(C)(=O)=O)cc2)=NN(c2ccc(F)cc2F)C1(C)C(=O)NCCCC(C)(C)CO` (stereo not drawn) [Compound 113, 4-butyl-1-(2,4-difluorophenyl)-N-(5-hydroxy-4,4-dimethylpentyl)-5-methyl-3-(4-(methylsulfonyl)phenyl)-4,5-dihydro-1H-pyrazole-5-carboxamide], the concentration for half-maximal inhibition (IC50) in assay [1], in assay [2] and in assay [3] was > 2 µM throughout.
`CCCCC1C(c2ccc(S(C)(=O)=O)cc2)=NN(c2ccc(F)cc2F)C1(C)C(=O)NCCOC` (stereo not drawn) [Compound 114, 4-butyl-1-(2,4-difluorophenyl)-N-(2-methoxyethyl)-5-methyl-3-(4-(methylsulfonyl)phenyl)-4,5-dihydro-1H-pyrazole-5-carboxamide]: the IC50 in assay [1], in assay [2] and in assay [3] was > 2 µM each time.
Consider `CC(C)(CO)CCCNC(=O)C1(C)C(c2ccco2)C(c2ccc(F)cc2F)=NN1c1ccc(F)cc1F` (stereo not drawn) [Compound 115, 1,3-bis(2,4-difluorophenyl)-4-(furan-2-yl)-N-(5-hydroxy-4,4-dimethylpentyl)-5-methyl-4,5-dihydro-1H-pyrazole-5-carboxamide], for which the IC50 was in the range of 0.5 to 1 µM in assay [1], 0.5 to 1 µM in assay [2] and 0.25 to 0.5 µM in assay [3].
For `COCCNC(=O)C1(C)C(c2ccco2)C(c2ccc(F)cc2F)=NN1c1ccc(F)cc1F` (stereo not drawn) [Compound 116, 1,3-bis(2,4-difluorophenyl)-4-(furan-2-yl)-N-(2-methoxyethyl)-5-methyl-4,5-dihydro-1H-pyrazole-5-carboxamide], the values for the IC50 in assay [1], in assay [2] and in assay [3] were 0.25 to 0.5 µM, < 0.25 µM and < 0.25 µM, respectively.
Regarding `CC(C)(CO)CCCNC(=O)C1(C)C(c2ccsc2)C(c2ccc(F)cc2F)=NN1c1ccc(F)cc1F` (stereo not drawn) [Compound 117, 1,3-bis(2,4-difluorophenyl)-N-(5-hydroxy-4,4-dimethylpentyl)-5-methyl-4-(thiophen-3-yl)-4,5-dihydro-1H-pyrazole-5-carboxamide], the half-maximal inhibitory concentration (IC50) fell in the range of 0.5 to 1 µM in assay [1], 0.5 to 1 µM in assay [2] and 0.25 to 0.5 µM in assay [3].
Consider `COCCNC(=O)C1(C)C(c2ccsc2)C(c2ccc(F)cc2F)=NN1c1ccc(F)cc1F` (stereo not drawn) [Compound 118, 1,3-bis(2,4-difluorophenyl)-N-(2-methoxyethyl)-5-methyl-4-(thiophen-3-yl)-4,5-dihydro-1H-pyrazole-5-carboxamide], for which the concentration for half-maximal inhibition (IC50) in assay [1], in assay [2] and in assay [3] was < 0.25 µM each time.
